In patent publication US6395876B1 (Medical College of Georgia Research Institute, Inc., priority 1997, dated 2002):
Values joined by “and” are separate entries in the source; they are usually repeats but may differ in a detail not shown here. Equal values may be shown once. “Also recorded” adds a separate entry of the source. Read-outs that look alike come from different tables or passages of the source. Blank lines part the entries; values can stand above or below the compound they belong to.

Legend:
[1] = system: high affinity tryptophan transporter
Experimental: Human peripheral blood monocytes were isolated from healthy volunteer donors by leukocytapheresis and counterflow centrifugal elutriation, following appropriate informed consent under a protocol approved by our Institutional Review Board.
Single cell suspensions were obtained by treating macrophage monolayers with 2 mM EDTA in Hanks balanced salt solution for 15 minutes at room temperature. Cells were washed twice in Tris-choline buffer (150 mM choline chloride, 10 mM tris, pH 7.4), suspended in Tris-choline at between one and 2×10^6 cells/ml, and 100 μl/well added to 96 well microtiter plates. […] Nonspecific binding of radioactivity to the filters (based on wells without cells) was typically less than 10% of the total signal, and was subtracted from each data point. […] In all assays, the uptake rate (V) was normalized per 1×10^6 cells (expressed as pmol 10^6 cells^−1. 10 min^−1). […]
Uptake kinetics were analyzed using an Eadie-Hofstee transformation (V/[S] vs. V) to identify linear concentration ranges for each transporter. Data from these two ranges were then analyzed separately using double-reciprocal (Lineweaver-Burk, 1/[S] vs. 1/V) plots to determine Km and Vmax. […] Kinetic parameters were calculated on a minimum of 4-6 points, and were considered reliable if the correlation coefficient of the regression line was greater than 0.95. […]

system L [2] = experiment: Radiolabeled amino acid uptake saturation kinetics, lower-affinity system, macrophages; type: cell-based, human; details: for Km: read-out: Km of low affinity transporter (system L)
Source text: Monocyte isolation and culture.
Analysis of saturation kinetics.

[3] = target: high affinity tryptophan transporter; experiment: Competition of unlabeled substrates with radiolabeled tryptophan uptake, high-affinity system, macrophages; type: cell-based, human
Experimental: Uptake measurements. Single cell suspensions were obtained by treating macrophage monolayers with 2 mM EDTA in Hanks balanced salt solution for 15 minutes at room temperature. Cells were washed twice in Tris-choline buffer (150 mM choline chloride, 10 mM tris, pH 7.4), suspended in Tris-choline at between one and 2×10^6 cells/ml, and 100 μl/well added to 96 well microtiter plates. Titrations of radiolabeled amino acids were then transferred to the assay plate and uptake allowed to proceed for 10 minutes (the linear range). At the end of the assay period, wells were harvested simultaneously onto glass-fiber filters and washed vigorously for 30 seconds with phosphate buffered saline solution using a Tomtec 96 well parallel harvester. Nonspecific binding of radioactivity to the filters (based on wells without cells) was typically less than 10% of the total signal, and was subtracted from each data point. All assays were performed in triplicate; where error bars are not shown the SD between replicates was less than 10%. In all assays, the uptake rate (V) was normalized per 1×10^6 cells (expressed as pmol 10^6 cells^−1. 10 min^−1). Normalization to milligrams protein was considered less informative because protein content can change markedly during macrophage differentiation, independently of other functional attributes.

system L [4] = experiment: Competition of unlabeled tryptophan for uptake of radiolabeled leucine or phenylalanine, macrophages; type: cell-based, human; details: labeled leucine or phenylalanine 125 nM
Source text: (§1) For competitive inhibition studies, the Ki value for each competitor was estimated by fitting the measured inhibition curve to the formula in Equation 1 (Cheng and Prusoff 1973, Biochem. Pharmacol. 22, 3099-3108). [formula]
(§2) where [S] is the concentration of labeled substrate, [I] is the concentration of unlabeled inhibitor, Vi is the observed rate of uptake in the presence of inhibitor, Ki is the putative affinity constant of the inhibitor for the transporter, and Km and Vmax have their customary meanings.

system L [5] = details: read-out: reported Km of system L for tryptophan; reported affinity; cited from earlier work
[6] = system: monocyte derived macrophages; experiment: Total tryptophan uptake in monocyte-derived macrophages (sodium and temperature dependence); type: cell-based, human
Experimental: The majority of tryptophan uptake is sodium-independent. Uptake in the absence of sodium was 86±6% of uptake in saline, n=4 Therefore all subsequent assays were performed in the absence of sodium.

system L [7] = experiment: Competition of unlabeled substrates with radiolabeled tryptophan uptake, system L component, macrophages; type: cell-based, human; details: for Ki: read-out: Ki (fit to Equation 1, single-system competitive model)
Source text: as §1, §2

[8] = read-out: IC50 for inhibition of radiolabeled tryptophan uptake, radiolabeled tryptophan 125 nM
[9] = unlabeled competitor 4 μM, radiolabeled tryptophan 125 nM
[10] = unlabeled competitor vs radiolabeled tryptophan (125 or 250 nM)
[11] = uptake of the radiolabeled amino acid, high substrate concentrations (8-64 μM)

Structure (SMILES): N[C@@H](Cc1c[nH]c2ccccc12)C(=O)O [tryptophan]
Km [1]: 0.29 ± 0.16 µM | calculated uptake with the selective high-affinity system present [1]: 70 fmol 10^6 cells^−1. 10 min^−1 | calculated uptake via system L alone (system L [2]; Equation 1, 50 nM tryptophan, 1 mM total other competing amino acids): 1.5 fmol 10^6 cells^−1. 10 min^−1 | Vmax, system L component (system L [2]; after macrophage differentiation): 27±4 pmol 10^6 cells^−1. 10 min^−1 | Vmax, system L component (system L [2]; before macrophage differentiation): 14±8 pmol 10^6 cells^−1. 10 min^−1 | Km (system L [2]): 27 µM and 30 µM and 20 to 30 µM | Ki ([3]; radiolabeled tryptophan 125 nM, read-out: Ki (fit to Equation 1, single-system model)): 0.36 µM | IC50 [3, 8]: 0.36 µM | effect of 4 μM unlabeled competitor on tryptophan uptake [3, 9]: markedly inhibited | high-affinity inhibition of phenylalanine or leucine uptake (system L [4]): no detectable | Ki (system L [4]; read-out: Ki of tryptophan versus labeled leucine or phenylalanine uptake): 30 µM | Km (system L [5]): 8 to 30 µM | reduction of the rate of tryptophan accumulation at 0° C. ([6]; 0° C. vs 25° C., up to 30 min): 90% | uptake in the absence of sodium relative to uptake in saline ([6]; radiolabeled tryptophan 125 nM, choline chloride vs 150 mM NaCl): 86% and 86±6%

Structure (SMILES): Cn1cc(C[C@H](N)C(=O)O)c2ccccc21 [1-methyl tryptophan]
competition with tryptophan for the high-affinity system [3, 10]: no competition

Km (system L [2]; [11]): 29 ± 2 µM | Ki (system L [7]; radiolabeled tryptophan 125 nM): ~10 µM
Structure (SMILES): N[C@@H](Cc1ccccc1)C(=O)O [phenylalanine]
effect of 4 μM unlabeled competitor on tryptophan uptake [3, 9]: little impact | competition with tryptophan for the high-affinity system [3, 10]: do not compete; also recorded: no detectable competition

Structure (SMILES): N[C@@H](Cc1ccc(O)cc1)C(=O)O [TYR, tyrosine]
effect of 4 μM unlabeled competitor on tryptophan uptake [3, 9]: little impact

Structure (SMILES): N[C@@H](Cc1c[nH]cn1)C(=O)O [HIS]
effect of 4 μM unlabeled competitor on tryptophan uptake [3, 9]: little impact

Structure (SMILES): CC(C)[C@H](N)C(=O)O [VAL]
effect of 4 μM unlabeled competitor on tryptophan uptake [3, 9]: little impact

Structure (SMILES): NCCCC[C@H](N)C(=O)O [LYS]
effect of 4 μM unlabeled competitor on tryptophan uptake [3, 9]: little impact

Structure (SMILES): N[C@@H](Cc1c[nH]c2ccc(O)cc12)C(=O)O [5-hydroxy tryptophan]
competition with tryptophan for the high-affinity system [3, 10]: did not compete | competition with tryptophan for the high-affinity system ([3]; unlabeled competitor vs radiolabeled tryptophan (125 or 250 nM), listed as 5-hydroxy derivative of tryptophan): failed to compete

Structure (SMILES): NCCc1c[nH]c2ccc(O)cc12 [serotonin]
competition with tryptophan for the high-affinity system [3, 10]: did not compete

Structure (SMILES): CSCC[C@H](N)C(=O)O [MET]
effect of 4 μM unlabeled competitor on tryptophan uptake [3, 9]: little impact

Km (system L [2]; [11]): 26 ± 6 µM
Structure (SMILES): CC(C)C[C@H](N)C(=O)O [leucine]
effect of 4 μM unlabeled competitor on tryptophan uptake [3, 9]: little impact | competition with tryptophan for the high-affinity system [3, 10]: do not compete

Structure (SMILES): CC[C@H](C)[C@H](N)C(=O)O [ILE]
effect of 4 μM unlabeled competitor on tryptophan uptake [3, 9]: little impact

Structure (SMILES): CC(=O)N[C@@H](Cc1c[nH]c2ccccc12)C(=O)O [N-acetyl tryptophan]
competition with tryptophan for the high-affinity system [3, 10]: did not compete

Structure (SMILES): N=C(N)NCCC[C@H](N)C(=O)O [ARG]
effect of 4 μM unlabeled competitor on tryptophan uptake [3]: little impact

IC50 ([3]; saturation kinetics of tryptophan (<1 μM) with or without 500 μM BCH, read-out: IC50 for interaction with the high-affinity system): > 500 µM | IC50 of BCH relative to IC50 of tryptophan (system L [7]; inhibition of tryptophan transport, radiolabeled tryptophan 125 nM): approximately 100 fold | Ki (system L [7]; radiolabeled tryptophan 125 nM): 37 µM | IC50 (system L [7]; [8]): 37 µM
Structure (SMILES): NC1(C(=O)O)CC2CCC1C2 (centres unmarked) [BCH, 2-aminobicyclo(2,2,1)-hepatane-2-carboxylic acid]
mode of inhibition of tryptophan uptake, high-affinity range ([3]; less than 1 μM tryptophan, 500 μM unlabeled BCH): strictly non-competitive; also recorded: weak non-competitive inhibitor | effect of 4 μM unlabeled competitor on tryptophan uptake [3, 9]: minimal effect; also recorded: little impact | competition with tryptophan for the high-affinity system [3, 10]: no evidence of competition; also recorded: did not compete; also recorded: not able to compete | mode of inhibition of tryptophan uptake, system L range (system L [7]; greater than 8 μM tryptophan, 500 μM unlabeled BCH): competitive inhibitor; also recorded: competitively inhibits | inhibition of tryptophan transport by 8 mM unlabeled substrate (system L [7]; radiolabeled tryptophan 125 nM, unlabeled substrates 8 mM each): inhibited

Structure (SMILES): C[C@@H](O)[C@H](N)C(=O)O [THR]
effect of 4 μM unlabeled competitor on tryptophan uptake [3, 9]: little impact

Structure (SMILES): N[C@H](Cc1c[nH]c2ccccc12)C(=O)O [D-tryptophan]
competition with tryptophan for the high-affinity system [3]: did not compete
